# Reference: patent US9302999B2, “Substituted triazoles as herbicides” (E. I. DU PONT DE NEMOURS AND COMPANY, priority 2012, dated 2016)
# What was measured:
# Assay type in all cases: in vivo
# [1] = system: morningglory (Ipomoea coccinea); assay: Test F pre-/postemergence: morningglory; conditions: Preemergence
# Procedure, shortened: (§1)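 Seeds were sown in silt loam soil and sprayed preemergence with test chemical in a non-phytotoxic solvent mixture containing surfactant; postemergence treatments went onto plants 2 to 18 cm tall (1- to 4-leaf stage) grown in peat moss/vermiculite medium. After 14 to 21 days in a greenhouse, injury was rated visually against controls, 0 (no effect) to 100 (complete control).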
# [2] = system: bromegrass, downy (downy bromegrass, Bromus tectorum); assay: Test D pre-/postemergence: bromegrass, downy
# Procedure, shortened: (§2)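 We sprayed chemicals in a surfactant-containing solvent onto silt loam at planting (preemergence) and onto 1- to 4-leaf seedlings (postemergence). Fourteen to 21 days later, each species was rated visually from 0 to 100 relative to controls.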
# [3] = system: wheat, winter (winter wheat, Triticum aestivum); assay: Test D pre-/postemergence: wheat, winter
# Procedure, shortened: as §2
# [4] = system: kochia (Kochia scoparia); assay: Test D pre-/postemergence: kochia
# Procedure, shortened: as §2
# [5] = system: ragweed (common ragweed, Ambrosia elatior); assay: Test F pre-/postemergence: ragweed; conditions: Preemergence
# From the text: Seeds of plant species selected from corn (Zea mays), soybean (Glycine max), velvetleaf (Abutilon theophrasti), lambsquarters (Chenopodium album), poinsettia, wild (wild poinsettia, Euphorbia heterophylla), pigweed, palmer (palmer pigweed, Amaranthus palmeri), waterhemp (common waterhemp, Amaranthus rudis), surinam grass (Brachiaria decumbens), crabgrass, Brazil (Brazilian crabgrass, Digitaria horizontalis), panicum, fall (fall panicum Panicum dichotomiflorum), crabgrass, large (large crabgrass, Digitaria sanguinalis), foxtail, giant (giant foxtail, Setaria faberii), foxtail, green (green foxtail Setaria viridis), goosegrass (Eleusine indica), ragweed (common ragweed, Ambrosia elatior), barnyardgrass (Echinochloa crus-galli), sandbur (southern sandbur, Cenchrus echinatus), arrowleaf sida (Sida rhombifolia), ryegrass, Italian (Italian ryegrass, Lolium multiflorum), dayflower, VA (Virginia (VA) dayflower, Commelina virginica), field bindweed (Convolvulus arvensis), cocklebur (common cocklebur, Xanthium strumarium), morningglory (Ipomoea coccinea), nightshade (eastern black nightshade, Solanum ptycanthum), kochia (Kochia scoparia), nutsedge, yellow (yellow nutsedge, Cyperus esculentus), johnsongrass (Sorghum halepense), smartweed (ladysthumb smartweed, Polygonum persicaria), and beggarticks (hairy beggarticks, Bidens pilosa), were planted into a silt loam soil and treated preemergence with test chemicals formulated in a non-phytotoxic solvent mixture which included a surfactant. At the same time, plants selected from these crop and weed species and also pigweed (Amaranthus retroflexus), waterhemp_RES1 (ALS/Triazine resistant common waterhemp, Amaranthus rudis) and waterhemp_RES2 (ALS/HPPD resistant common waterhemp, Amaranthus rudis) were planted in pots containing a planting medium comprising spaghnum peat moss, vermiculite, wetting agent and starter nutrients treated with postemergence applications of some of the test chemicals formulated in the same manner. Plants ranged in height from 2 to 18 cm for postemergence treatments (1- to 4-leaf stage).
# Treated plants and controls were maintained in a greenhouse for 14 to 21 days, after which time all species were compared to controls and visually evaluated. Plant response ratings, summarized in Table E, are based on a scale of 0 to 100 where 0 is no effect and 100 is complete control. A dash (-) response means no test result.
# [6] = system: poinsettia, wild (wild poinsettia, Euphorbia heterophylla); assay: Test F pre-/postemergence: poinsettia, wild
# Procedure, shortened: as §1
# [7] = system: kochia (Kochia scoparia); assay: Test F pre-/postemergence: kochia; conditions: Preemergence
# Procedure, shortened: as §1
# [8] = 16 g ai/ha, scale 0 to 100, 0 no effect, 100 complete control
# [9] = 31 g ai/ha, scale 0 to 100, 0 no effect, 100 complete control
# [10] = Postemergence, 31 g ai/ha, scale 0 to 100 (0 no effect, 100 complete control)
# [11] = Postemergence, 62 g ai/ha, scale 0 to 100 (0 no effect, 100 complete control)
# [12] = Postemergence, 125 g ai/ha, scale 0 to 100, 0 no effect, 100 complete control
# [13] = Postemergence, 16 g ai/ha, scale 0 to 100
# [14] = Preemergence, 16 g ai/ha, scale 0 to 100, 0 no effect, 100 complete control
# [15] = Preemergence, 31 g ai/ha, scale 0 to 100, 0 no effect, 100 complete control
# [16] = Preemergence, 62 g ai/ha, scale 0 to 100
# [17] = Preemergence, 125 g ai/ha, scale 0 to 100
# [18] = 8 g ai/ha, scale 0 to 100, 0 no effect, 100 complete control
structure (smiles),measurement,setting,value
Cc1nn(-c2ccc(C(F)(F)F)c(F)c2)nc1Oc1ccnc(C(F)(F)F)c1 [Compound 148],"Plant response rating, Morningglory",[1]; [8],0
same,"Plant response rating, Morningglory",[1]; [9],30
same,"Plant response rating, Morningglory","[1]; 125 g ai/ha, scale 0 to 100",50
same,"Plant response rating, Morningglory","[1]; 250 g ai/ha, scale 0 to 100",70
same,"Plant response rating: Bromegrass, Downy",[2]; [10],5
same,"Plant response rating: Bromegrass, Downy",[2]; [11],15
same,"Plant response rating: Bromegrass, Downy",[2]; [12],20
same,"Plant response rating, Bromegrass, Downy",[2]; [13],5
same,"Plant response rating, Bromegrass, Downy",[2]; [14],0
same,"Plant response rating, Bromegrass, Downy",[2]; [15],0
same,"Plant response rating, Bromegrass, Downy",[2]; [16],10
same,"Plant response rating, Bromegrass, Downy",[2]; [17],20
same,"Plant response rating: Wheat, Winter",[3]; [10],10
same,"Plant response rating: Wheat, Winter",[3]; [11],15
same,"Plant response rating: Wheat, Winter",[3]; [12],25
same,"Plant response rating, Wheat, Winter",[3]; [13],10
same,"Plant response rating, Wheat, Winter",[3]; [14],0
same,"Plant response rating, Wheat, Winter",[3]; [15],5
same,"Plant response rating, Wheat, Winter",[3]; [16],0
same,"Plant response rating, Wheat, Winter",[3]; [17],10
same,Plant response rating: Kochia,[4]; [10],85
same,Plant response rating: Kochia,[4]; [11],85
same,Plant response rating: Kochia,[4]; [12],85
same,"Plant response rating, Kochia",[4]; [13],75
same,"Plant response rating, Kochia",[4]; [14],10
same,"Plant response rating, Kochia",[4]; [15],20
same,"Plant response rating, Kochia",[4]; [16],10
same,"Plant response rating, Kochia",[4]; [17],75
same,"Plant response rating, Ragweed",[5]; [8],0
same,"Plant response rating, Ragweed",[5]; [9],0
same,"Plant response rating, Ragweed","[5]; 125 g ai/ha, scale 0 to 100",75
same,"Plant response rating, Ragweed","[5]; 250 g ai/ha, scale 0 to 100",75
same,"Plant response rating, Poinsettia, Wild",[6]; [14],0
same,"Plant response rating, Poinsettia, Wild",[6]; [15],0
same,"Plant response rating, Poinsettia, Wild",[6]; [17],20
same,"Plant response rating, Poinsettia, Wild","[6]; Preemergence, 250 g ai/ha, scale 0 to 100",100
same,"Plant response rating, Kochia",[7]; [8],0
same,"Plant response rating, Kochia",[7]; [9],90
same,"Plant response rating, Kochia","[7]; 62 g ai/ha, scale 0 to 100",90
same,"Plant response rating, Kochia","[7]; 125 g ai/ha, scale 0 to 100",95
same,"Plant response rating, Kochia","[7]; 250 g ai/ha, scale 0 to 100",98
"CCOc1nn(-c2ccc(F)cc2)nc1Cc1ccnc(C(F)(F)F)c1 [Compound 196, 4-[[5-ethoxy-2-(4-fluorophenyl)-2H-1,2,3-triazol-4-yl]methyl]-2-(trifluoromethyl)pyridine]","Plant response rating, Morningglory",[1]; [18],0
same,"Plant response rating, Morningglory",[1]; [8],30
same,"Plant response rating, Morningglory",[1]; [9],30
same,"Plant response rating, Morningglory","[1]; 125 g ai/ha, scale 0 to 100",70
same,"Plant response rating: Bromegrass, Downy",[2]; [10],35
same,"Plant response rating: Bromegrass, Downy",[2]; [11],50
same,"Plant response rating: Bromegrass, Downy",[2]; [12],65
same,"Plant response rating, Bromegrass, Downy",[2]; [13],15
same,"Plant response rating, Bromegrass, Downy",[2]; [14],5
same,"Plant response rating, Bromegrass, Downy",[2]; [15],15
same,"Plant response rating, Bromegrass, Downy",[2]; [16],70
same,"Plant response rating, Bromegrass, Downy",[2]; [17],90
same,"Plant response rating: Wheat, Winter",[3]; [10],20
same,"Plant response rating: Wheat, Winter",[3]; [11],25
same,"Plant response rating: Wheat, Winter",[3]; [12],35
same,"Plant response rating, Wheat, Winter",[3]; [13],15
same,"Plant response rating, Wheat, Winter",[3]; [14],5
same,"Plant response rating, Wheat, Winter",[3]; [15],5
same,"Plant response rating, Wheat, Winter",[3]; [16],10
same,"Plant response rating, Wheat, Winter",[3]; [17],15
same,Plant response rating: Kochia,[4]; [10],85
same,Plant response rating: Kochia,[4]; [11],90
same,Plant response rating: Kochia,[4]; [12],90
same,"Plant response rating, Kochia",[4]; [13],70
same,"Plant response rating, Kochia",[4]; [14],35
same,"Plant response rating, Kochia",[4]; [15],70
same,"Plant response rating, Kochia",[4]; [16],100
same,"Plant response rating, Kochia",[4]; [17],100
same,"Plant response rating, Ragweed",[5]; [18],0
same,"Plant response rating, Ragweed",[5]; [8],0
same,"Plant response rating, Ragweed",[5]; [9],0
same,"Plant response rating, Ragweed","[5]; 125 g ai/ha, scale 0 to 100",50
same,"Plant response rating, Poinsettia, Wild","[6]; Postemergence, 8 g ai/ha, scale 0 to 100",75
same,"Plant response rating, Poinsettia, Wild",[6]; [13],85
same,"Plant response rating, Poinsettia, Wild","[6]; Postemergence, 31 g ai/ha, scale 0 to 100",95
same,"Plant response rating, Poinsettia, Wild","[6]; Postemergence, 62 g ai/ha, scale 0 to 100",95
same,"Plant response rating, Poinsettia, Wild","[6]; Postemergence, 125 g ai/ha, scale 0 to 100",95
same,"Plant response rating, Poinsettia, Wild","[6]; Preemergence, 8 g ai/ha, scale 0 to 100, 0 no effect, 100 complete control",0
same,"Plant response rating, Poinsettia, Wild",[6]; [14],50
same,"Plant response rating, Poinsettia, Wild",[6]; [15],50
same,"Plant response rating, Poinsettia, Wild",[6]; [17],75
same,"Plant response rating, Kochia",[7]; [18],5
same,"Plant response rating, Kochia",[7]; [8],5
same,"Plant response rating, Kochia",[7]; [9],10
same,"Plant response rating, Kochia","[7]; 62 g ai/ha, scale 0 to 100",100
same,"Plant response rating, Kochia","[7]; 125 g ai/ha, scale 0 to 100",100
